This passage reports TGI and GI50 results from PubChem BioAssay (NCI).

Molecules are shown by their SMILES.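 Five concentrations, 48 hours, 96-well plates. Abbreviation: GI50, concentration required for 50% inhibition of growth. At the TGI there is no net growth.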 Some results are limits rather than exact numbers.

Some test systems named below: CCRF-CEM leukemia; IGROV1 ovarian; MOLT-4 leukemia; NCI/ADR-RES ovarian; OVCAR-4 ovarian; RXF 393 renal; SF-268 CNS; U251 CNS; UO-31 renal; LOX IMVI melanoma.
Holding throughout (experiment): growth of human tumour cells (NCI), 48 h

Consider `Cc1ccc(C(=O)Nc2ccc(S(=O)(=O)O)c3cc(S(=O)(=O)O)cc(S(=O)(=O)O)c23)cc1NC(=O)c1cccc(N)c1`, for which the TGI in the test on CCRF-CEM leukemia, in the test on IGROV1 ovarian, with MOLT-4 leukemia, in the test with NCI/ADR-RES ovarian, with OVCAR-4 ovarian and in the test with RXF 393 renal was over 100 µM throughout. Moreover, the TGI with SF-268 CNS, in the test with U251 CNS and in the test with UO-31 renal was over 100 µM in each case.
For `CC(C)(C(=O)NN)c1ccccc1`, the TGI in the test on CCRF-CEM leukemia, with IGROV1 ovarian, with LOX IMVI melanoma, in the test on MOLT-4 leukemia, in the test on NCI/ADR-RES ovarian and in the test on SF-268 CNS was over 100 µM each time. The TGI with U251 CNS and in the test on UO-31 renal was over 100 µM each time.
For the compound `CCN1C(=O)N(CC)C2C1NN=c1s/c(=C3\C(=O)N(C(C)C)c4ccccc43)c(=O)n12` (stereo not drawn), the GI50 is 0.377 µM with CCRF-CEM leukemia; 0.586 µM in the test with IGROV1 ovarian; 0.463 µM in the test with LOX IMVI melanoma; 0.379 µM in the test on MOLT-4 leukemia; 0.3 µM with NCI/ADR-RES ovarian; 1.6 µM in the test on OVCAR-4 ovarian. In addition, the figures for the GI50 in the test with SF-268 CNS, in the test with U251 CNS and in the test on UO-31 renal were 0.722 µM, 0.378 µM and 0.636 µM, respectively. In addition, the TGI in the test on CCRF-CEM leukemia was over 100 µM; with IGROV1 ovarian it was over 100 µM; in the test on LOX IMVI melanoma, over 100 µM; with MOLT-4 leukemia, over 100 µM; in the test on NCI/ADR-RES ovarian it was 3.14 µM; in the test on OVCAR-4 ovarian it was over 100 µM. Moreover, the TGI was over 70.3 µM in the test on SF-268 CNS, over 57.7 µM with U251 CNS and over 100 µM in the test with UO-31 renal.
In the case of `CCOP(=O)(OCC)C1CCCCOC1=O` (stereo not drawn), the TGI in the test on CCRF-CEM leukemia was over 100 µM; with IGROV1 ovarian it was over 100 µM; with LOX IMVI melanoma, 40 µM; in the test on MOLT-4 leukemia, over 100 µM; in the test on OVCAR-4 ovarian, over 100 µM; in the test with RXF 393 renal, over 100 µM. The TGI in the test with SF-268 CNS, with U251 CNS and in the test with UO-31 renal was over 100 µM in each case.
Turning to `CC1(Sc2ccccc2)CN(Cc2ccccc2)C1=O` (stereo not drawn), the TGI with CCRF-CEM leukemia, in the test with IGROV1 ovarian, in the test on LOX IMVI melanoma, in the test on MOLT-4 leukemia, in the test on OVCAR-4 ovarian and in the test on RXF 393 renal was over 100 µM each time. In addition, the TGI in the test on SF-268 CNS, in the test on U251 CNS and in the test with UO-31 renal was over 100 µM in each case.
Consider `COC(=O)CCC(=O)N1Cc2cc(C)ccc2N(C(=O)CCC(=O)OC)Cc2cc(C)ccc21`, for which the TGI in the test with CCRF-CEM leukemia, in the test on IGROV1 ovarian, in the test with LOX IMVI melanoma, in the test on MOLT-4 leukemia, in the test on OVCAR-4 ovarian and in the test on RXF 393 renal was over 100 µM throughout. The TGI in the test with SF-268 CNS, with U251 CNS and in the test with UO-31 renal was over 100 µM throughout.
Turning to `O=C(NCCCCCCNC(=O)c1cccc2ccccc12)c1cccc2ccccc12`, the TGI in the test with CCRF-CEM leukemia was over 100 µM; in the test on IGROV1 ovarian, over 100 µM; in the test with LOX IMVI melanoma, 44.3 µM; in the test with MOLT-4 leukemia it was over 100 µM; in the test on OVCAR-4 ovarian it was 58.6 µM; in the test with RXF 393 renal, 23.8 µM. The results for the TGI with SF-268 CNS, in the test on U251 CNS and with UO-31 renal were 81.9 µM, 53.8 µM and 66.3 µM, respectively.
Turning to `CCOC(=O)C=C1CCN(C(=O)c2ccccc2)CC1`, the TGI with CCRF-CEM leukemia, in the test on IGROV1 ovarian, with LOX IMVI melanoma, in the test with MOLT-4 leukemia, with OVCAR-4 ovarian and with RXF 393 renal was over 100 µM throughout. Besides, the TGI in the test on SF-268 CNS, in the test with U251 CNS and in the test on UO-31 renal was over 100 µM each time.
For the compound `C[C@]12CC[C@H]3[C@@H](CCC4=CC(=O)CC[C@@H]43)[C@@H]1CC[C@@H]2OC(=O)N(CCCl)N=O`, the GI50 in the test on CCRF-CEM leukemia is 1.45 µM; in the test on IGROV1 ovarian, 0.172 µM; in the test on LOX IMVI melanoma, 1.1 µM; in the test on MOLT-4 leukemia it was 0.716 µM; in the test on NCI/ADR-RES ovarian, 2.96 µM; in the test on OVCAR-4 ovarian, 10.8 µM. The GI50 was 0.167 µM with SF-268 CNS, 0.346 µM with U251 CNS and 0.837 µM in the test with UO-31 renal. The TGI with CCRF-CEM leukemia is over 35.4 µM; in the test with IGROV1 ovarian it was 15.8 µM; with LOX IMVI melanoma it was 23.9 µM; with MOLT-4 leukemia, over 32.6 µM; in the test with NCI/ADR-RES ovarian, 31.9 µM; with OVCAR-4 ovarian, 31.2 µM. The values for the TGI in the test with SF-268 CNS, with U251 CNS and in the test with UO-31 renal were 17.6 µM, 17.4 µM and 14.1 µM, respectively.
Consider `CN1CCc2c1nc(-c1ccccc1)c1c2N(C)CC1`, for which the TGI with CCRF-CEM leukemia, in the test on IGROV1 ovarian, in the test with LOX IMVI melanoma, in the test with MOLT-4 leukemia, in the test with OVCAR-4 ovarian and with RXF 393 renal was over 100 µM throughout. Further, the TGI in the test with SF-268 CNS is over 100 µM; in the test on U251 CNS, over 100 µM; in the test on UO-31 renal, 78.5 µM.
Regarding `NCC1(N2CCOCC2)C2CCCC21CO` (stereo not drawn), the TGI in the test with CCRF-CEM leukemia, with IGROV1 ovarian, in the test on MOLT-4 leukemia, in the test with OVCAR-4 ovarian, in the test with RXF 393 renal and in the test on SF-268 CNS was over 100 µM each time. For the same compound, the TGI in the test on U251 CNS and in the test on UO-31 renal was over 100 µM in each case.
As to `CC(=O)[O][Pb]([O]C(C)=O)([c]1ccccc1)[c]1ccccc1`, the GI50 in the test with CCRF-CEM leukemia is 16.2 µM; with IGROV1 ovarian, 5.98 µM; in the test with LOX IMVI melanoma it was 1.19 µM; in the test with MOLT-4 leukemia, 35 µM; with OVCAR-4 ovarian, over 100 µM; with RXF 393 renal it was 1.41 µM. Besides, the figures for the GI50 in the test with SF-268 CNS, with U251 CNS and with UO-31 renal were 3.29 µM, 4.69 µM and over 100 µM, respectively. Also, the TGI in the test on CCRF-CEM leukemia was over 100 µM; in the test with IGROV1 ovarian, over 100 µM; in the test with LOX IMVI melanoma it was 2.67 µM; in the test with MOLT-4 leukemia, over 100 µM; in the test on OVCAR-4 ovarian, over 100 µM; with RXF 393 renal, 5.69 µM. For the same compound, the TGI is 16.6 µM with SF-268 CNS, 10 µM in the test with U251 CNS and over 100 µM with UO-31 renal.
